Earlier results in patent US9358223B2, “Formulation for preventing or reducing bleeding at a surgical site” (WARSAW ORTHOPEDIC, INC., priority 2009, dated 2016).

Tested on: blood pressure
Details: perioperative period, patients undergoing rhytidectomy

Compound: Clc1cccc(Cl)c1N=C1NCCN1 [Clonidine, 2,6-dichloro-N-2-imidazolidinyldenebenzenamine]
- regulation of blood pressure: effectively regulate blood pressure
